Source: PMC8159961, “Exploring protein hotspots by optimized fragment pharmacophores” (Nature Communications, 2021)
Values joined by “and” are separate entries in the source; they are usually repeats but may differ in a detail not shown here. Equal entries are not always repeated. Where two headings read alike, the source gives them in different places.

Experiments:
[1] = target: T1, human thrombin (Homo sapiens, UniProt P00734); test: Protease inhibitory assay, chromogenic substrate S-2238; assay type: biochemical; settings: for vinit: replicate values; for Ki: Thrombin, one of two values averaged in Supplementary Data 1, read-out: Ki
T1 construct: human thrombin; purchased Sigma-Aldrich

[2] = target: T2, bovine factor Xa (Bos taurus, UniProt P00743); test: Protease inhibitory assay, chromogenic substrate S-2222; assay type: biochemical; settings: cmpd conc 200 µM; for vinit: replicate values; for Ki: FactorXa, one of two values averaged in Supplementary Data 1, read-out: Ki
T2 construct: bovine factor Xa, Chromogenix, 2 nkat/mL; purchased Chromogenix

[3] = Thrombin primary screening, substrate 40 µM, cmpd conc 500 µM
[4] = FactorXa Ki determination, substrate 100 µM
[5] = FactorXa Ki determination, substrate 200 µM
[6] = FactorXa primary screening, substrate 100 µM
[7] = Thrombin Ki determination, substrate 20 µM, cmpd conc 200 µM
[8] = Thrombin Ki determination, substrate 40 µM, cmpd conc 200 µM
[9] = substrate 20 µM, cmpd conc 200 µM
[10] = substrate 40 µM, cmpd conc 200 µM

T2 sequence (P00743 234-492 limits assumed): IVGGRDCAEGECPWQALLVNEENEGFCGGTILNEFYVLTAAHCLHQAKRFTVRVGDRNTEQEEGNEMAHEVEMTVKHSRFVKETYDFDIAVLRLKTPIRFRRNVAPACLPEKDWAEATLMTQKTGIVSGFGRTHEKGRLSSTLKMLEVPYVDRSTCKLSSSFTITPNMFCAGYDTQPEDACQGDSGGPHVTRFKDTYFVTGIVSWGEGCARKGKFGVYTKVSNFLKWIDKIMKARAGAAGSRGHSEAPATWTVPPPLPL
T2 sequence (P00743 41-180 partner limits assumed): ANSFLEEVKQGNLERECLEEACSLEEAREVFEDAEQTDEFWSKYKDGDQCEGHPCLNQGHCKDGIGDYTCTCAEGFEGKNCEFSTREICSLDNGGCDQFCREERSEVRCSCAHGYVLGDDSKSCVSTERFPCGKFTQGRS

SMILES | V0 / Vi [1, 3] | vinit [1, 3] | V0 / Vi [2, 6] | vinit [2, 6] | also measured
Cc1cc2ccccc2nc1N [SX-A1] | 0.95 | 30.291 and 31.236 | 1.83 | 9.345 and 9.782 | V0 / Vi [2, 4]: 1.84; vinit, avrg. [2, 4]: 8.852; vinit [2, 4]: 8.688 and 8.852 and 9.02; V0 / Vi [2, 5]: 1.59; vinit [2, 5]: 22.63 and 23.206 and 22.86; Ki ([2]; substrate 100 µM): 148 µM; Ki ([2]; substrate 200 µM): 152 µM
c1cnc2cccnc2c1 [SX-A2] | 1.13 | 26.327 and 25.6 | 1.03 | 17.164 and 16.836 | V0 / Vi [1, 7]: 1.14; vinit, avrg. [1, 7]: 23.193; vinit [1, 7]: 23.633 and 22.973 and 22.97; V0 / Vi [1, 8]: 1.07; vinit, avrg. [1, 8]: 31.452; vinit [1, 8]: 33.054 and 31.27 and 30.03; Ki [1, 9]: 160 µM; Ki [1, 10]: 166 µM
c1cnc2ncccc2c1 [SX-A3] | 1.00 | 28.545 and 30.364 | 0.96 | 18.873 and 17.673 | –
c1ccc2[nH]ccc2c1 [SX-A4] | 0.97 | 31.418 and 30.036 | 1.05 | 15.929 and 16.714 | –
Nc1nnc2ccccn12 [SX-A5] | 0.99 | 30.873 and 29.418 | 0.96 | 17.929 | –
Cn1c(N)nc2ccccc21 [SX-A6] | 0.93 | 31.891 and 32.182 | 1.45 | 10.544 and 13.214 | V0 / Vi [2, 4]: 1.48; vinit, avrg. [2, 4]: 10.970; vinit [2, 4]: 10.624 and 11.848 and 10.44; V0 / Vi [2, 5]: 1.30; vinit [2, 5]: 28.578 and 28.05 and 27.32; Ki ([2]; substrate 100 µM): 257 µM; Ki ([2]; substrate 200 µM): 297 µM
Cc1nc(-c2ccccc2)cs1 [SX-A7] | 0.97 | 32.618 and 31.345 | 0.98 | 17.782 and 18.8 | –
Cc1cc(-c2ccccc2)n[nH]1 [SX-A8] | 0.97 | 32.036 and 32.145 | 0.98 | 19.236 and 17.164 | –
Brc1ccc(-c2ccon2)cc1 [SX-A9] | 0.98 | 30.873 and 32.327 | 0.98 | 19.055 and 17.6 | –
COc1ccccc1N1CCNCC1 [SX-A10] | 0.96 | 33.236 and 32.218 | 0.98 | 14.286 and 15.286 | –
COc1ccccc1C1CCNCC1 [SX-A11] | 0.93 | 35.636 and 31.927 | 0.86 | 16.916 and 16.512 | –
Oc1ccccc1N1CCCCC1 [SX-A12] | 0.93 | 34.073 and 33.6 | 1.24 | 11.714 and 11.643 | V0 / Vi [2, 4]: 1.21; vinit, avrg. [2, 4]: 13.477; vinit [2, 4]: 13.208 and 13.684 and 13.54; V0 / Vi [2, 5]: 1.14; vinit [2, 5]: 30.42 and 30.848 and 34.37; Ki ([2]; substrate 100 µM): 597 µM; Ki ([2]; substrate 200 µM): 625 µM
CS(=O)(=O)c1ccc(N2CCNCC2)cc1 [SX-B1] | – | 29.818 and 32 | – | 18 and 19.091 | –
O=C1CNCCN1c1ccccc1 [SX-B2] | 1.05 | 28.909 and 27.2 | 1.00 | 17.273 and 17.782 | –
O=C1CCCc2occc21 [SX-B3] | 0.97 | 30.582 and 29.818 | 1.01 | 17.709 and 16.909 | –
NC1CCc2ccccc21 (stereo not shown) [SX-B4] | 0.96 | 31.2 and 30.982 | 0.93 | 18.714 and 18.143 | –
N[C@H]1c2ccccc2C[C@H]1CO [SX-B5] | 0.98 | 32.873 and 28.182 | 0.91 | 18.071 and 19.643 | –
O=c1[nH]ncc2c1oc1ccccc12 [SX-B6] | 1.05 | 28.582 and 28.145 | 1.00 | 17.214 and 17.071 | –
O=C1NC(=O)C2(CCc3ccccc32)N1 (stereo not shown) [SX-B7] | 0.98 | 31.782 and 31.345 | 0.98 | 19.273 and 17.122 | –
CS(=O)(=O)c1ccc(OC(F)(F)F)cc1 [SX-B8] | 0.99 | 31.709 and 31.2 | 0.94 | 20.109 and 18.073 | –
Cc1cnc(C(F)(F)F)cn1 [SX-B9] | 1.01 | 31.164 and 30.509 | 0.98 | 18.8 and 17.6 | –
CN1CC(=O)NC1=O [SX-B10] | 0.98 | 32.909 and 30.982 | 0.98 | 14 and 15.6 | –

SMILES | V0 / Vi [1, 3] | vinit [1, 3] | V0 / Vi [2, 6] | vinit [2, 6] | also measured
Cc1cc(N)no1 [SX-B11] | 1.00 | 30.982 and 31.927 | 0.97 | 13.08 and 16.72 | –
COc1ccccc1CC1CCNCC1.Cl [SX-B12] | 0.97 | 32.327 and 32.218 | 1.35 | 10.3 and 11.164 | V0 / Vi [2, 4]: 1.28; vinit, avrg. [2, 4]: 12.727; vinit [2, 4]: 13.1265 and 12.596 and 12.46; V0 / Vi [2, 5]: 1.25; vinit [2, 5]: 26.514 and 31.33 and 29.51; Ki ([2]; substrate 100 µM): 445 µM; Ki ([2]; substrate 200 µM): 357 µM
Fc1ccc(CC2CCCNC2)cc1 (stereo not shown) [SX-C1] | 0.97 | 29.564 and 30.8 | 0.94 | 18.218 and 18.909 | –
c1ccc(-c2ccncc2)cc1 [SX-C2] | 0.98 | 30.473 and 29.273 | 1.01 | 16.764 and 18 | –
NC(c1ccccc1)c1ccccc1 [SX-C3] | 1.07 | 27.818 and 27.309 | 0.95 | 19.527 and 17.564 | –
c1ccc2c(N3CCNCC3)ccnc2c1 [SX-C4] | 1.01 | 30.291 and 29.018 | 1.03 | 16.357 and 17 | –
O=c1ccc2c([nH]1)CCCC2 [SX-C5] | 1.00 | 30.182 and 29.673 | 1.05 | 16.714 and 16 | –
CC1(C)OC(=O)c2cc(Br)c(O)cc2O1 [SX-C6] | 1.14 | 27.418 and 25.091 | 1.03 | 16.857 and 16.429 | –
CC(=O)c1ccc2c(c1)CCCN2 [SX-C7] | 0.96 | 32.218 and 32.109 | 1.02 | 17.382 and 17.673 | –
CC(=O)c1ccc2c(c1)CNCC2 [SX-C8] | 0.98 | 32.218 and 31.018 | 0.98 | 18.691 and 17.818 | –
O=C1NC2(CCCC2)Nc2ccccc21 [SX-C9] | 1.01 | 30.218 and 31.018 | 0.98 | 18.873 and 17.6 | –
O=c1[nH]c2c(s1)CCC2 [SX-C10] | 0.94 | 33.418 and 33.127 | 1.04 | 13.7 and 14.2 | –
C1=C[C@H]2O[C@@H]1c1ccccc12 [SX-C11] | 0.96 | 33.564 and 31.964 | 0.94 | 15.415 and 15.185 | –
N#Cc1ccc2ncsc2c1 [SX-C12] | 0.98 | 31.855 and 32.109 | 1.17 | 10.6 and 14 | –
Nc1ccc(SC(F)F)cc1 [SX-D1] | 1.00 | 28.182 and 30.8 | 0.99 | 18.218 and 17.091 | –
CCc1ccc(NC2=NCCCS2)cc1 [SX-D2] | 0.96 | 30.909 and 30.582 | 1.02 | 16.873 and 17.6 | –
Nc1nnc(-c2cccs2)[nH]1 [SX-D3] | 1.08 | 26.655 and 27.673 | 1.09 | 16.545 and 15.782 | V0 / Vi [1, 7]: 1.11; vinit, avrg. [1, 7]: 23.831; vinit [1, 7]: 23.075 and 23.01 and 25.41; V0 / Vi [1, 8]: 1.08; vinit, avrg. [1, 8]: 31.345; vinit [1, 8]: 30.327 and 31.656 and 32.05; Ki [1, 9]: 204 µM; Ki [1, 10]: 158 µM
CCn1cnc2ccccc21 [SX-D4] | 0.98 | 30.291 | 1.03 | 16.929 and 16.571 | –
CCCN1C(=O)CC(=O)NC1=S [SX-D5] | 1.13 | 26.909 and 25.673 | 1.06 | 16.429 and 16.071 | –
Cc1ccc(C)n1Cc1ccccc1Cl [SX-D6] | 1.24 | 26.364 and 21.673 | 0.98 | 17.786 and 17.286 | –
Cc1ccc(-c2ccc(O)cc2)cc1 [SX-D7] | 1.05 | 30.8 and 28.545 | 1.15 | 14.909 and 16.073 | –
